In patent US5362740A, “Dihydrobenzofuran carboxamides and process for their preparation” (Farmitalia Carlo Erba S.r.l., priority 1990, dated 1994):

How the values were obtained:
5HT3 receptor [1] = target: T1, 5HT3 receptor (Rattus norvegicus, UniProt P35563); experiment: Inhibition of the binding of ^3 H-GR65630; 5-HT3 binding affinity for rat entorhinal cortex; set-up: labeled in the entorhinal cortex of the rat brain; from tissue; host or cells: rat brain entorhinal cortex; conditions: for fitting model of interaction / displacement of ^3 H-GR 65630: rat entorhinal cortex
T1 sequence (P35563 24-483): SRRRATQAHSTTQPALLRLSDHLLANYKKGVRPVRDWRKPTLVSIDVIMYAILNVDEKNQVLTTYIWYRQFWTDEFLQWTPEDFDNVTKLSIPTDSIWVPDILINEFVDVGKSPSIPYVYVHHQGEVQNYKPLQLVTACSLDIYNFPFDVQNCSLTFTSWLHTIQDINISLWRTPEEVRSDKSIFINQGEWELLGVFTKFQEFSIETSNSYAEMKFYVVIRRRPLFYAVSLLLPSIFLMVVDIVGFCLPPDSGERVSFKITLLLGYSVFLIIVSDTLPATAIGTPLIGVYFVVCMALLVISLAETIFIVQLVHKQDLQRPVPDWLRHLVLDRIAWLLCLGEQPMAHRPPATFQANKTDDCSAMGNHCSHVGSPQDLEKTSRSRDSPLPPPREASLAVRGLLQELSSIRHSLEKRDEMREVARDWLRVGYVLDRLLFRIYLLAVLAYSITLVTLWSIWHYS

5HT3 receptor [2] = target: T1, 5HT3 receptor; experiment: Inhibition of the Bezold-Jarisch chemoreflex evoked by 5-HT in the anesthetized rat (in vivo 5HT3 antagonist activity); set-up: evoked by 5-HT in the anesthetised rat; from tissue; host or cells: whole anesthetized rat (in vivo); conditions: 5-HT 20 μg/kg I.V.; for % inhibition: mean ± S.E.M. from 6 animals, *p < 0.01 vs controls (Dunnett's test); for ED50: iv, I.V., anesthetized rat, read-out: ED50 (limits)
Protocol: Ther. 248, 197-201 (1989).
Inhibition of the Bezold-Jarisch reflex elicited by 5-HT (20 μg/
Values are mean ± S.E.M. from 6 animals

5-HT3 receptor = experiment: Inhibition of the binding of ^3 H-GR65630; 5-HT3 binding affinity for rat entorhinal cortex; conditions: [^3 H] GR 65630 labeled 5HT3 sites; rat entorhinal cortex; two site non-linear fitting, low

| Compound | fitting model of interaction / displacement of ^3 H-GR 65630 (5HT3 receptor [1]) | % inhibition (5HT3 receptor [2]; 1 μg/kg I.V.) [%] | % inhibition (5HT3 receptor [2]; 3 μg/kg I.V.) [%] | % inhibition (5HT3 receptor [2]; 10 μg/kg I.V.) [%] | ED50 (5HT3 receptor [2]) [µg/kg] | Ki (5HT3 receptor [1]) [nM] | % inhibition (5HT3 receptor [2]; 0.1 μg/kg I.V.) [%] | % inhibition (5HT3 receptor [2]; 0.3 μg/kg I.V.) [%] | Ki (5-HT3 receptor) [nM] |
| --- | --- | --- | --- | --- | --- | --- | --- | --- | --- |
| Cc1nccn1CC1CCc2c(c3ccccc3n2C)C1=O (racemic) [Ondansetron, (±)-1,2,3,4-tetrahydro-9-methyl-3-(2-methylimidazol-1-yl-methyl)-carbazol-4-one, reference compound] | two site non-linear fitting model | 32.86 ± 8.58 | 58.42 ± 3.89 | 81.21 ± 1.82 | 2.25 | – | – | – | – |
| CN1C2CCCC1CC(NC(=O)c1cc(Cl)c(N)c3c1OCC3)C2 (stereo not drawn) [FCE 27270, 4-amino-5-chloro-N-(9-methyl-9-azabicyclo[3.3.1]non-3-yl)-2,3-dihydrobenzo[b]furan-7-carboxamide] | two site non-linear fitting model | 89.11 ± 3.39 | – | – | 0.2 | 0.092 | 37.25 ± 2.77 | 54.09 ± 3.39 | 39 |
| CN1C2CCC1CC(NC(=O)c1cc(Cl)c(N)c3c1OCC3)C2 (stereo not drawn) [FCE 27271, 4-amino-5-chloro-N-(8-methyl-8-azabicyclo[3.2.1]oct-3-yl)-2,3-dihydrobenzo[b]furan-7-carboxamide] | two site non-linear fitting model | 82.54 ± 2.33 | – | – | 0.81 | 0.833 | 23.83 ± 5.50 | 55.69 ± 4.05 | 96.2 |
| CN1C2CCC1CC(OC(=O)c1cc(Cl)cc(Cl)c1)C2 (stereo not drawn) [MDL 72222, reference compound] | one site non-linear fitting | – | – | – | – | – | – | – | – |
| CCN(CC)CCNC(=O)c1cc(Cl)c(N)cc1OC [Metoclopramide, reference compound] | one site non-linear fitting | – | – | – | – | – | – | – | – |
